Laboratory results: patent US12084472B2 (Ardelyx, Inc., priority 2015, dated 2024)

Biological target: T1, human TGR5 (Homo sapiens, UniProt Q8TDU6)
T1 construct: expressed in transfected cells; host or cells: HEK293
T1 sequence (Q8TDU6 1-330): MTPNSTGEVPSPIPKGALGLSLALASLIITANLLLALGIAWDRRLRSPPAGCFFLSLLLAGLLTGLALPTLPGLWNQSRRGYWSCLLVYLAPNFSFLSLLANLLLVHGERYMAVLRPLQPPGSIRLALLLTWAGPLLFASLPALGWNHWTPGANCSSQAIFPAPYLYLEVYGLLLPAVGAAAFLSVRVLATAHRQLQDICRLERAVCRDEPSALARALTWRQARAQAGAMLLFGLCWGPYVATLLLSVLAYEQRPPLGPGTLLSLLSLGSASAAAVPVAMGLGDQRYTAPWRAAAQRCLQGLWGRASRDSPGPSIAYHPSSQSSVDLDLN
Assay: Cell-based TGR5 assay (cAMP generation, HTRF)
Conditions: HEK293 cells stably transfected with human TGR5; cAMP by HTRF; 30 minutes at 37° C.; read-out: pEC50 Human TGR5 (converted)
In short: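 First, compounds in 3-fold serial dilution were placed in HBSS with 10 mM HEPES pH 7.4 and 0.5 mM IBMX. Next, human TGR5-expressing HEK293 cells were added and incubated 30 min at 37° C. Finally, cAMP was detected by HTRF and pEC50 derived by logistic fitting.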

CC(CCCCN(CCOCCO)C(=O)[C@@H](O)[C@@H](O)[C@H](O)[C@@H](O)CO)c1ccc(Cl)c(CNC2(c3cnccc3-c3ccccc3OC3CC3)CC2)c1 (stereo partly drawn) [Compound I-288, (2S,3S,4R,5S)-N-(5-{4-chloro-3-[({1-[4-(2-cyclopropoxyphenyl)pyridin-3-yl]cyclopropyl}amino)methyl]phenyl}hexyl)-2,3,4,5,6-pentahydroxy-N-[2-(2-hydroxyethoxy)ethyl]hexanamide] and CC(CCCCN(CCS(C)(=O)=O)C(=O)[C@@H](O)[C@@H](O)[C@H](O)[C@@H](O)CO)c1ccc(Cl)c(CNC2(c3cnccc3-c3ccccc3OC3CC3)CC2)c1 (stereo partly drawn) [Compound I-291, (2S,3S,4R,5S)-N-(5-{4-chloro-3-[({1-[4-(2-cyclopropoxyphenyl)pyridin-3-yl]cyclopropyl}amino)methyl]phenyl}hexyl)-2,3,4,5,6-pentahydroxy-N-(2-methanesulfonylethyl)hexanamide] cannot be ordered by EC50: < 100 nM for the first, < 100 nM for the second.

O=C(NCCCCc1cc(Cl)c(COC2(c3cnccc3-c3ccccc3OC3CC3)CC2)cc1Cl)[C@@H](O)[C@@H](O)[C@H](O)[C@@H](O)CO (stereo in doubt) [Compound I-185, (2S,3S,4R,5S)-N-{4-[2,5-dichloro-4-({1-[4-(2-cyclopropoxyphenyl)pyridin-3-yl]cyclopropoxy}methyl)phenyl]butyl}-2,3,4,5,6-pentahydroxyhexanamide] and CN(CCCCc1cc(Cl)c(COC2(c3cnccc3-c3ccccc3OC3CC3)CC2)cc1Cl)C(=O)[C@@H](O)[C@@H](O)[C@H](O)[C@@H](O)CO (stereo in doubt) [Compound I-184, (2S,3S,4R,5S)-N-{4-[2,5-dichloro-4-({1-[4-(2-cyclopropoxyphenyl)pyridin-3-yl]cyclopropoxy}methyl)phenyl]butyl}-2,3,4,5,6-pentahydroxy-N-methylhexanamide] cannot be ordered by EC50: < 100 nM for the first, < 100 nM for the second.

First: CN(CCCCSc1ccc(Cl)c(COC2(c3cnccc3-c3ccccc3OC3CC3)CC2)c1)C(=O)[C@@H](O)[C@@H](O)[C@H](O)[C@@H](O)CO [Compound I-510, (2S,3S,4R,5S)-N-(4-{[4-chloro-3-({11-[4-(2-cyclopropoxyphenyl)pyridin-3-yl]cyclopropoxy}methyl)phenyl]sulfanyl}butyl)-2,3,4,5,6-pentahydroxy-N-methylhexanamide]
Second: Cc1ccc(SCCCN(CCOCCO)C(=O)[C@@H](O)[C@@H](O)[C@H](O)[C@@H](O)CO)cc1COC1(c2cnccc2-c2ccccc2OC2CC2)CC1 [Compound I-538, (2S,3S,4R,5S)-N-(3-{[3-({1-[4-(2-cyclopropoxyphenyl)pyridin-3-yl]cyclopropoxy}methyl)-4-methylphenyl]sulfanyl}propyl)-2,3,4,5,6-pentahydroxy-N-[2-(2-hydroxyethoxy)ethyl]hexanamide]
The EC50 of the first is lower: < 100 nM for the first, 1260 to 10000 nM for the second.

First: COCc1ccccc1-c1ccncc1C1(NCc2cc(Cl)ccc2Cl)CC1 [Compound I-12]
Second: Fc1ccc(OC2CC2)c(-c2ccncc2C2(NCc3cc(Cl)ccc3Cl)CC2)c1 [Compound I-3, 1-[4-(2-cyclopropoxy-5-fluorophenyl)pyridin-3-yl]-N-[(2,5-dichlorophenyl)methyl]cyclopropan-1-amine]
The EC50 of the first is higher: 126 to 1000 nM for the first, < 100 nM for the second.

First: CN(CCOCCN)S(=O)(=O)c1ccc(Cl)c(COC2(c3cnccc3-c3ccccc3OC3CC3)CC2)c1 [Compound I-400, N-[2-(2-aminoethoxy)ethyl]-4-chloro-3-({1-[4-(2-cyclopropoxyphenyl)pyridin-3-yl]cyclopropoxy}methyl)-N-methylbenzene-1-sulfonamide]
Second: COCCN(CCCCCNC(=O)NC[C@H](O)[C@@H](O)[C@H](O)[C@H](O)CO)S(=O)(=O)c1ccc(Cl)c(COC2(c3cnccc3-c3ccccc3OC3CC3)CC2)c1 [Compound I-412, 1-{5-[N-(2-methoxyethyl)4-chloro-3-({1-[4-(2-cyclopropoxyphenyl)pyridin-3-yl]cyclopropoxy}methyl)benzenesulfonamido]pentyl}-3-[(2S,3R,4R,5R)-2,3,4,5,6-pentahydroxyhexyl]urea]
The EC50 of the first is higher: 126 to 1000 nM for the first, < 100 nM for the second.

COCCN(C[C@@H](O)[C@H](O)[C@@H](O)[C@@H](O)CO)C(=O)CCCC(C)c1ccc(Cl)c(CNC2(c3cnccc3-c3ccccc3OC3CC3)CC2)c1 (stereo partly drawn) [Compound I-333, 5-{4-chloro-3-[({1-[4-(2-cyclopropoxyphenyl)pyridin-3-yl]cyclopropyl}amino)methyl]phenyl}-N-(2-methoxyethyl)-N-[(2R,3S,4S,5S)-2,3,4,5,6-pentahydroxyhexyl]hexanamide] and CC(CCCCC(=O)N(C)C[C@H](O)[C@@H](O)[C@H](O)[C@H](O)CO)c1ccc(Cl)c(CNC2(c3cnccc3-c3ccccc3OC3CC3)CC2)c1 (stereo partly drawn) [Compound I-330, 6-{4-chloro-3-[({1-[4-(2-cyclopropoxyphenyl)pyridin-3-yl]cyclopropyl}amino)methyl]phenyl}-N-methyl-N-[(2S,3R,4R,5R)-2,3,4,5,6-pentahydroxyhexyl]heptanamide] cannot be ordered by EC50: < 100 nM for the first, < 100 nM for the second.

CN(CCCNC[C@H](O)[C@@H](O)[C@H](O)[C@H](O)C(=O)O)C(=O)CCCCc1cc(Cl)c(COC2(c3cnccc3-c3ccccc3OC3CC3)CC2)cc1Cl [Compound I-180, (2S,3S,4R,5S)-6-[(3-{5-[2,5-dichloro-4-({1-[4-(2-cyclopropoxyphenyl)pyridin-3-yl]cyclopropoxy}methyl)phenyl]-N-methylpentanamido}propyl)amino]-2,3,4,5-tetrahydroxyhexanoic acid] and O=C([C@@H](O)[C@@H](O)[C@H](O)[C@@H](O)CO)N(CCCCc1cc(Cl)c(COC2(c3cnccc3-c3ccccc3OC3CC3)CC2)cc1Cl)CC1CC1 [Compound I-211, (2S,3S,4R,5S)-N-(cyclopropylmethyl)-N-{4-[2,5-dichloro-4-({1-[4-(2-cyclopropoxyphenyl)pyridin-3-yl]cyclopropoxy}methyl)phenyl]butyl}-2,3,4,5,6-pentahydroxyhexanamide] cannot be ordered by EC50: < 100 nM for the first, < 100 nM for the second.

CC(C)N(CCCCNC(=O)NC[C@H](O)[C@@H](O)[C@H](O)[C@H](O)CO)S(=O)(=O)c1ccc(Cl)c(COC2(c3cnccc3-c3ccccc3OC3CC3)CCC2)c1 [Compound I-747, 4-chloro-3-((1-(4-(2-cyclopropoxyphenyl)pyridin-3-yl)cyclobutoxy)methyl)-N-isopropyl-N-(4-(3-((2S,3R,4R,5R)-2,3,4,5,6-pentahydroxyhexyl)ureido)butyl)benzenesulfonamide] and Cc1cc(COC2(c3cnccc3-c3ccccc3OC3CC3)CC2)c(Cl)cc1CCCCN(C)C(=O)NC[C@H](O)[C@@H](O)[C@H](O)[C@H](O)CO [Compound I-115, 1-{4-[5-chloro-4-({1-[4-(2-cyclopropoxyphenyl)pyridin-3-yl]cyclopropoxy}methyl)-2-methylphenyl]butyl}-1-methyl-3-[(2S,3R,4R,5R)-2,3,4,5,6-pentahydroxyhexyl]urea] cannot be ordered by EC50: < 100 nM for the first, < 100 nM for the second.

O=C([C@@H](O)[C@@H](O)[C@H](O)[C@@H](O)CO)N(CCCCSc1ccc(Cl)c(CNC2(c3cnccc3-c3ccccc3OC3CC3)CC2)c1)C1CCS(=O)(=O)CC1 [Compound I-581, (2S,3S,4R,5S)-N-[4-({4-chloro-3-[({1-[4-(2-cyclopropoxyphenyl)pyridin-3-yl]cyclopropyl}amino)methyl]phenyl}sulfanyl)butyl]-N-(1,1-dioxo-1λ^6-thian-4-yl)-2,3,4,5,6-pentahydroxyhexanamide] and CC(CCCN(C)C(=O)[C@@H](O)[C@@H](O)[C@H](O)[C@@H](O)CO)c1ccc(Cl)c(CNC2(c3cnccc3-c3ccccc3OC3CC3)CC2)c1 (stereo partly drawn) [Compound I-258, (2S,3S,4R,5S)-N-(4-[4-chloro-3-[([1-[4-(2-cyclopropoxyphenyl)pyridin-3-yl]cyclopropyl]amino)methyl]phenyl]pentyl)-2,3,4,5,6-pentahydroxy-N-methylhexanamide] cannot be ordered by EC50: < 100 nM for the first, < 100 nM for the second.

Cc1ccc(S(=O)(=O)N(C)CCCCNC(=O)N[C@@H](CO)[C@@H](O)[C@H](O)[C@H](O)CO)cc1CNC1(c2cnccc2-c2ccccc2OC2CC2)CC1 [Compound I-478, 1-(4-{N-methyl3-[({1-[4-(2-cyclopropoxyphenyl)pyridin-3-yl]cyclopropyl}amino)methyl]-4-methylbenzenesulfonamido}butyl)-3-[(2S,3R,4S,5R)-1,3,4,5,6-pentahydroxyhexan-2-yl]urea] and Cc1cc(COC2(c3cnccc3-c3ccccc3OC3COC3)CC2)c(Cl)cc1CCCCNC(=O)N(C)C[C@H](O)[C@@H](O)[C@H](O)[C@H](O)CO [Compound I-191, 1-(4-{5-chloro-2-methyl-4-[(1-{4-[2-(oxetan-3-yloxy)phenyl]pyridin-3-yl}cyclopropoxy)methyl]phenyl}butyl)-3-methyl-3-[(2S,3R,4R,5R)-2,3,4,5,6-pentahydroxyhexyl]urea] cannot be ordered by EC50: < 100 nM for the first, < 100 nM for the second.

Oc1cc(Cl)c(CNC2(c3cnccc3-c3ccccc3OC3CC3)CC2)cc1Cl [Compound I-700, 2,5-dichloro-4-[([1-[4-(2-cyclopropoxyphenyl)pyridin-3-yl]cyclopropyl]amino)methyl]phenol] and CC(CCCC(=O)N1CCC(NC[C@H](O)[C@@H](O)[C@H](O)[C@H](O)C(=O)O)CC1)c1ccc(Cl)c(CNC2(c3cnccc3-c3ccccc3OC3CC3)CC2)c1 (stereo partly drawn) [Compound I-318, (2S,3S,4R,5S)-6-{[1-(5-{4-chloro-3-[({1-[4-(2-cyclopropoxyphenyl)pyridin-3-yl]cyclopropyl}amino)methyl]phenyl}hexanoyl)piperidin-4-yl]amino}-2,3,4,5-tetrahydroxyhexanoic acid] cannot be ordered by EC50: < 100 nM for the first, < 100 nM for the second.
